Literature values as cited in patent publication US8765768B2, “Heterocyclic compounds and their uses” (Amgen Inc., priority 2010, dated 2014).

Legend:
[1] = tested on: mouse model of rheumatoid arthritis; details: in vivo
[2] = tested on: model of systemic lupus erythematosis; details: in vivo
[3] = tested on: protein kinases
[4] = tested on: ovalbumin-induced airway inflammation
[5] = biological target: T1, p110δ (Homo sapiens, UniProt O00329)
T1 sequence (O00329 1-1044): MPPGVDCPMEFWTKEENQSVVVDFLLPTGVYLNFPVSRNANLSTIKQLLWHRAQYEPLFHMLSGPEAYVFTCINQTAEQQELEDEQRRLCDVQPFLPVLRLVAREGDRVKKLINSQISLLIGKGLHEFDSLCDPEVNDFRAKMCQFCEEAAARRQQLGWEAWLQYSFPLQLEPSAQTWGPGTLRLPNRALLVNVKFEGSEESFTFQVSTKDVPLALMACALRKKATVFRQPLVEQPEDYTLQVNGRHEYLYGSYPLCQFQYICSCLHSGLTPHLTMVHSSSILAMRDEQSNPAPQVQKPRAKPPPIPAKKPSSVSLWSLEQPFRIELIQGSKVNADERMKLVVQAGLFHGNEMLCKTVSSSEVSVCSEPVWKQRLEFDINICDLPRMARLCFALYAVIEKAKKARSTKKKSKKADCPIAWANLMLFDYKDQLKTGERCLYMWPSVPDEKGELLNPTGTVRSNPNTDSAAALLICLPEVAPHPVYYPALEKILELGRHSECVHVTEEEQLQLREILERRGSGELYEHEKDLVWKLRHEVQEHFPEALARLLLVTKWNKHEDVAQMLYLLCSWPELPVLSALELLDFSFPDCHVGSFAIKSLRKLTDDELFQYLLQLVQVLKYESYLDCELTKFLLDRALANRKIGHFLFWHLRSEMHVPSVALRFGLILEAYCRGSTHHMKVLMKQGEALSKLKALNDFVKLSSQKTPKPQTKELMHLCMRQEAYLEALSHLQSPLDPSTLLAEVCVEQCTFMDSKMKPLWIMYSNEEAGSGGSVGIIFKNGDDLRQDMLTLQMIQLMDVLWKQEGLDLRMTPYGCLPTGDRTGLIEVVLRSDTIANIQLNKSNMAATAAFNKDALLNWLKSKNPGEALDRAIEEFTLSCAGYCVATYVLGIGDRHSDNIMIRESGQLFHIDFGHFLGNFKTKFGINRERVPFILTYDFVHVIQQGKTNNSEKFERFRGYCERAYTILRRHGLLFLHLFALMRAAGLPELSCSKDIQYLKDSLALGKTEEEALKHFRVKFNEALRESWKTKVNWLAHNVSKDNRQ

Structure (SMILES)	efficacy in a mouse model of rheumatoid arthritis [1]	onset of disease in a model of systemic lupus erythematosis [2]	activity against any protein kinases tested [3]	inflammation and disease in a murine model of asthma [4]	inhibits p110δ [5]
O=C1NC(=O)/C(=C\c2ccc3nccnc3c2)S1 [AS 605240]	efficacious	delay onset of disease			
Cc1ccccc1-n1c(Cn2cnc3c(N)ncnc32)nc2cccc(C)c2c1=O [IC87114]			no activity	significantly ameliorate inflammation and disease	high nanomolar range (triple digit)
